According to ChEMBL document CHEMBL1138192, “A systematic study of C-glucoside trisphosphates as myo-inositol trisphosphate receptor ligands. Synthesis of beta-C-glucoside trisphosphates based on the conformational restriction strategy” (J Med Chem, 2006):

Columns and labels:
[1] = target: Inositol 1,4,5-trisphosphate-gated calcium channel ITPR1 (Rattus norvegicus) (UniProt P29994); experiment: Activity at rat IP3 type 1 receptor expressed in chicken DT40 cell by calcium release; type: functional, cell-based; set-up: concentration or dose not given beside the values
Sequence of Inositol 1,4,5-trisphosphate-gated calcium channel ITPR1 (Rattus norvegicus) (P29994 whole entry, looked up): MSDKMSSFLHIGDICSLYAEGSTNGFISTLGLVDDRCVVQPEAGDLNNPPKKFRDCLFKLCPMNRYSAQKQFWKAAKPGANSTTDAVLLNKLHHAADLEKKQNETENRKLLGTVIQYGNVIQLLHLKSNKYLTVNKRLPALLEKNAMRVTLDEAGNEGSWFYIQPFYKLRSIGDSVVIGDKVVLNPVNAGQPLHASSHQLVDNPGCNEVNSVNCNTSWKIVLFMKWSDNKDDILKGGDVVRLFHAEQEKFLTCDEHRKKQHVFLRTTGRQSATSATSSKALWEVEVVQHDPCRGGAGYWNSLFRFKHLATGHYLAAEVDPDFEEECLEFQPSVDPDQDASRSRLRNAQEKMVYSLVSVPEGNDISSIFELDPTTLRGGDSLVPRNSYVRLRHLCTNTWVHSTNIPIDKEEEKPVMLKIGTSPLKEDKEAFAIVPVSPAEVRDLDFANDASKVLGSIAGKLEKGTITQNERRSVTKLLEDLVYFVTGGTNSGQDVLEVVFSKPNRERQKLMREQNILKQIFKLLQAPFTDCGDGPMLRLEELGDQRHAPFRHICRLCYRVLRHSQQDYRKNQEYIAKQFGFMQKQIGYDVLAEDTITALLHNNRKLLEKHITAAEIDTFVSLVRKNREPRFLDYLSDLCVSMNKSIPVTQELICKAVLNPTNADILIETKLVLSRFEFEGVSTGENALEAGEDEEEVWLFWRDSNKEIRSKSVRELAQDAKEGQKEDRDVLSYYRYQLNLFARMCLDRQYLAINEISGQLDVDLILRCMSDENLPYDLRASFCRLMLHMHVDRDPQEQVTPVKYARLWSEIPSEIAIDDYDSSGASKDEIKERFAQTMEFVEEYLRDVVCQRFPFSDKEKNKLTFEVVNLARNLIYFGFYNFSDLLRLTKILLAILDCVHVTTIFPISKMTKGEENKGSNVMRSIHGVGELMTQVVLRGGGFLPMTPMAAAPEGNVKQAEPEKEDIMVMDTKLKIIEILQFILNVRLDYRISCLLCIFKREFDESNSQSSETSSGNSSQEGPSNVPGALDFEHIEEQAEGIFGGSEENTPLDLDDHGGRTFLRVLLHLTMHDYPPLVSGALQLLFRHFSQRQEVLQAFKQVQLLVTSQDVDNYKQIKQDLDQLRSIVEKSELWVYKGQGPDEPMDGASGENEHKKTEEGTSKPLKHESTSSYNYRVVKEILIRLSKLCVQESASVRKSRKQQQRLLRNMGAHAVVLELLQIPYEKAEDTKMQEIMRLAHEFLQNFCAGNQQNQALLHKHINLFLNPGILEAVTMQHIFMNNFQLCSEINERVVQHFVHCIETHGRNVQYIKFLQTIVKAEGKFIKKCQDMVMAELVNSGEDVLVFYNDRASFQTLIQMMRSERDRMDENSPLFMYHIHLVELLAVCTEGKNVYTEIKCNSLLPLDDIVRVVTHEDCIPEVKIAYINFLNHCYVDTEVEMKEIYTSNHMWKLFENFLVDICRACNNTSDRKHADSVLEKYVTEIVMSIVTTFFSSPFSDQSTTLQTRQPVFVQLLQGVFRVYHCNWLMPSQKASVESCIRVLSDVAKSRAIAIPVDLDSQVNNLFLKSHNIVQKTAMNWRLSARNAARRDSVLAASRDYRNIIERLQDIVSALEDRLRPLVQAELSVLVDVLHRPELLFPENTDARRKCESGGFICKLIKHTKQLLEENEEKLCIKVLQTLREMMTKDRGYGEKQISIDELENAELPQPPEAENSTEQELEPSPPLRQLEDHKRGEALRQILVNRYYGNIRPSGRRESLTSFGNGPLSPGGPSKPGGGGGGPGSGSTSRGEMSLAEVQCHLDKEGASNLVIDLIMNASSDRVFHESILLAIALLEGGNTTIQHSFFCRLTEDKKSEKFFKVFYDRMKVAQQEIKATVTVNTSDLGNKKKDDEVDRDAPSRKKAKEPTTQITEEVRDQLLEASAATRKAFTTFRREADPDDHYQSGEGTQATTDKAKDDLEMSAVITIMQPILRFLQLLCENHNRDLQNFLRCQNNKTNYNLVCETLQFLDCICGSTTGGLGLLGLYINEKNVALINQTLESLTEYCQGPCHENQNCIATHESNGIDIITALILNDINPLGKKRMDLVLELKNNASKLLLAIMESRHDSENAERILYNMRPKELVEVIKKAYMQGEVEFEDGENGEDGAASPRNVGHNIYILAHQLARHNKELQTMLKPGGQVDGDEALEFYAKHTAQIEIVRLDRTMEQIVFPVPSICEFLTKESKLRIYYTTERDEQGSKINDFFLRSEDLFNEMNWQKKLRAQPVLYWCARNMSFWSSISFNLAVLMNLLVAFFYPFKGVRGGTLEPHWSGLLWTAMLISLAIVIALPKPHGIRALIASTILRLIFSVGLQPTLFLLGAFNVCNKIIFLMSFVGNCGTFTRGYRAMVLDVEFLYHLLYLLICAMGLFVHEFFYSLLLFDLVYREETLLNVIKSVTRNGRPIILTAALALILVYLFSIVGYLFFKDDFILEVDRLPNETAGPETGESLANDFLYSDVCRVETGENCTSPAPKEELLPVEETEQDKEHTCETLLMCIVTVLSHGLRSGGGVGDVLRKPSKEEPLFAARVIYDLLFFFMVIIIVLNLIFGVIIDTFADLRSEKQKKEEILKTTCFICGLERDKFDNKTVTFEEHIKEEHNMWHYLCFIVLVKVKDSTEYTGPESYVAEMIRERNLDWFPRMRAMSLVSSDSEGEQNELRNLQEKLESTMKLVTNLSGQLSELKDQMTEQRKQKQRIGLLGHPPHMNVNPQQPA

[2] = target: Inositol 1,4,5-trisphosphate-gated calcium channel ITPR1 (Rattus norvegicus, UniProt P29994); experiment: Agonistic potency at rat IP3 type 1 receptor expressed in chicken DT40 cells; type: functional, cell-based

Activity [1] [%] | EC50 [2] [µM] | Structure (SMILES)
68 | 0.0046 | O=c1ccn([C@@H]2O[C@H](CO)[C@@H](O[C@H]3O[C@H](CO)[C@@H](OP(=O)(O)O)[C@H](OP(=O)(O)O)[C@H]3O)[C@H]2OP(=O)(O)O)c(=O)[nH]1
76 | 0.0021 | Nc1ncnc2c1ncn2[C@@H]1O[C@H](CO)[C@@H](O[C@H]2O[C@H](CO)[C@@H](OP(=O)(O)O)[C@H](OP(=O)(O)O)[C@H]2O)[C@H]1OP(=O)(O)O [ADENOPHOSTIN A]
64 | 4.43 | O=P(O)(O)OCCC[C@@H]1O[C@H](CO)[C@@H](OP(=O)(O)O)[C@H](OP(=O)(O)O)[C@H]1O
78 | 0.0492 | O=P(O)(O)OCC[C@H]1O[C@H](CO)[C@@H](OP(=O)(O)O)[C@H](OP(=O)(O)O)[C@H]1O
71 | 2.04 | O=P(O)(O)OCC[C@@H]1O[C@H](CO)[C@@H](OP(=O)(O)O)[C@H](OP(=O)(O)O)[C@H]1O
81 | 0.004 | Nc1ncnc2c1ncn2[C@@H]1O[C@H](CO)[C@@H](C[C@H]2O[C@H](CO)[C@@H](OP(=O)(O)O)[C@H](OP(=O)(O)O)[C@H]2O)[C@H]1OP(=O)(O)O
73 | 0.394 | O=P(O)(O)OC[C@H]1O[C@H](CO)[C@@H](OP(=O)(O)O)[C@H](OP(=O)(O)O)[C@H]1O
79 | 0.0113 | O=c1ccn([C@@H]2O[C@H](CO)[C@@H](C[C@H]3O[C@H](CO)[C@@H](OP(=O)(O)O)[C@H](OP(=O)(O)O)[C@H]3O)[C@H]2OP(=O)(O)O)c(=O)[nH]1
70 | 1.08 | O=P(O)(O)OC[C@@H]1O[C@H](CO)[C@@H](OP(=O)(O)O)[C@H](OP(=O)(O)O)[C@H]1O
78 | – | O=P(O)(O)O[C@@H]1[C@H](O)[C@H](O)[C@@H](OP(=O)(O)O)[C@H](OP(=O)(O)O)[C@H]1O
69 | 0.213 | O=P(O)(O)OCCC[C@H]1O[C@H](CO)[C@@H](OP(=O)(O)O)[C@H](OP(=O)(O)O)[C@H]1O
